These results are taken from patent publication US8895504B2, “Amylin derivatives” (priority 2008, dated 2014).

Series [1] deals with T1, Amylin 3(a) receptor (human calcitonin receptor (CTa) and RAMP-3) (Homo sapiens, UniProt O60896+P30988).
T1 construct: expressed in transfected cells; host or cells: BHK570 cells, stably transfected with a CRE-luciferase reporter
As to the kind of experiment: Luciferase assay (III), BHK Amylin 3(a)//CRE-luc cells. The following applies: BHK cells with Amylin 3(a) receptor and CRE luciferase reporter, 4 hours incubation; read-out: Potency Luciferase. Type of series: cell-based. The gist of the method:
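BHK570 cells stably expressing CTa, RAMP-3 and a CRE-luciferase reporter, seeded at about 20,000 cells/well and grown overnight. Cells were exposed to standard or sample for 4 h at 37° C in phenol red-free DMEM with 10% FBS and 10 mM Hepes, pH 7,4. Luminescence was read after 30 min LucLite at room temperature.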
On the technique in general: In a reporter assay the amount or activity of a reporter protein is the signal.

Series [2] can be described thus: Assay (V) PK - determination of T½ in mini-pig. The following applies: minipig, sc; terminal plasma half-life, subcutaneous, approx 2 nmol/kg, male Göttingen mini-pigs. The class given is in vivo. Here is the method: Assay (V) PK—Determination OF T½ in Mini-Pig
T½ is the terminal half-life=ln 2/λz of a compound in plasma. λz is the first order rate constant associated with the terminal (log-linear) portion of the plasma concentration-time curve and is estimated by linear regression of time vs. log concentration.
T½ values of the amylin analogues of the invention is determined by pharmacokinetic studies in male Göttingen mini-pigs from Ellegaard Göttingen Minipigs ApS and the principles of laboratory animal care are followed.
An acclimatization period of approximately 6-10 days was allowed before the animals entered the study. At start of the acclimatization period the mini-pigs were about 5 to 12 months old and in the weight range of 7-35 kg. The mini-pigs had two central venous catheters inserted which were used for blood sampling.
The studies were conducted in an animal room which was illuminated to give a cycle of approx 12 hours light and 12 hours darkness. The animals were housed individually.
The animals had free access to domestic quality drinking water during the study, but were typically fasted from overnight before dosing until approx 6-12 hours after dosing. The animals were weighed on arrival and on the days of dosing.
In the present studies the test substances were administered subcutaneously in approx 2 nmol/kg dose. The animals received a single subcutaneous injection. The subcutaneous injection was given on the right side of the neck, approximately 5-7 cm from the ear and 7-9 cm from the middle of the neck. The injections were given with a stopper on the needle, allowing approx 0.5 cm of the needle to be introduced. Each test substance was given to typically three but in some cases two or four animals.
A full plasma concentration-time profile, employing 12-16 sampling points, was obtained from each animal. In example blood samples were collected according to the following schedule:
After subcutaneous administration:
Predose (0), 0.5, 1, 2, 4, 6, 8, 12, 24, 48, 72, 96, 120, 168 and 240 hours after injection. In some cases also additional blood samples up to 288 hours post injection were taken.
At each sampling time, 0.5 to 2 ml of blood was drawn from each animal. The blood samples were taken via the central venous catheter.
The blood samples were collected into EDTA test tubes (i.e. Sarstedt Micro tube 1.3 mL K3E). Blood samples were kept on ice for max 20 min. before centrifugation. Plasma was separated using centrifugation (i.e. at 4° C., 10 min., 1500 G) and was immediately transferred to Micronic tubes. Approximately 200 μl plasma was transferred to each Micronic tube. The plasma was stored at −20° C. until assayed. The plasma samples were assayed for the content of amylin using an ELISA assay.
The plasma concentration-time profiles were analysed by a non-compartmental pharmacokinetic analysis (NCA) using WinNonlin Professional 5.0 (Pharsight Inc., Mountain View, Calif., USA). NCA was performed using the individual plasma concentration-time profiles from each animal. T½ is the terminal half-life=ln 2/λz and was determined from λz, the first order rate constant associated with the terminal (log-linear) portion of the curve, estimated by linear regression of time vs. log concentration.
ELISA Plasma Assay for Amylin Quantification
The human amylin ELISA is a monoclonal antibody-based sandwich immunoassay for determining amylin levels in human plasma. The capture antibody recognizes human amylin, amylin acid (deamidated amylin), a 1-20 fragment of amylin, but not reduced amylin.
The detection antibody binds to reduced or unreduced human amylin but not amylin acid and is complexed with streptavidin-alkaline phosphatase. The substrate, 4-methylumbelliferyl phosphate, is applied to the completed sandwich and the fluorescent signal, monitored at 355 nm/460 nm, is proportional to the amount of amylin present in the sample.

*1 amine or outer side, *2 acyl side, *3 side chain or, on linkers, in order; H or OH if unused. Where a SMILES comes first, the peptide text is derived from it. Bridges are numbered along the chain shown (N, C = ends). The star is where a group is joined. C20 diacid = O=C(O)CCCCCCCCCCCCCCCCCCC(=O)*; γGlu = O=C(O)[C@H](CCC(=O)[*:2])N[*:1]; AEEA = NCCOCCOCC(=O)O

T1 sequence (O60896 24-148): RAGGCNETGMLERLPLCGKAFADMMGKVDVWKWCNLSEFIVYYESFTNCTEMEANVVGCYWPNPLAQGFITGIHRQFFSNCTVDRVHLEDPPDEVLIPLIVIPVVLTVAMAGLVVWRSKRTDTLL
T1 sequence (P30988 25-474): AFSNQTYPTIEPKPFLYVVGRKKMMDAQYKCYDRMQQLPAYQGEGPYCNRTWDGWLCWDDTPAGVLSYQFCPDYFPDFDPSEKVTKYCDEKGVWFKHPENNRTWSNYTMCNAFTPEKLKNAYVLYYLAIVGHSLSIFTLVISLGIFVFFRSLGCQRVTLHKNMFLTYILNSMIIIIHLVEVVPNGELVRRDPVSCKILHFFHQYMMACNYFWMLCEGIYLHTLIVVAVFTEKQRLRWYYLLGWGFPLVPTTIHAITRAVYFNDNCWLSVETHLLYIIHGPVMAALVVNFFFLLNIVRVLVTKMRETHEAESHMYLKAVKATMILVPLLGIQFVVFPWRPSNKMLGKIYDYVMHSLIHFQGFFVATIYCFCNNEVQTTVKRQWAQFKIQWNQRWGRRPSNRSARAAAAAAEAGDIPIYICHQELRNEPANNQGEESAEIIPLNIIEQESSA

Turning to `CC[C@H](C)[C@H](NC(=O)[C@@H]1CCCN1C(=O)CNC(=O)[C@H](Cc1ccccc1)NC(=O)[C@H](CC(N)=O)NC(=O)[C@H](CC(N)=O)NC(=O)[C@H](CO)NC(=O)[C@H](CO)NC(=O)[C@H](Cc1c[nH]cn1)NC(=O)[C@H](CCCNC(=N)N)NC(=O)[C@H](CC(C)C)NC(=O)[C@H](Cc1ccccc1)NC(=O)[C@H](CC(N)=O)NC(=O)[C@H](C)NC(=O)[C@H](CC(C)C)NC(=O)[C@H](CCCNC(=N)N)NC(=O)[C@H](CCC(N)=O)NC(=O)[C@@H](NC(=O)[C@H](C)NC(=O)[C@@H]1CSSC[C@H](NC(=O)[C@H](CCCCN)NC(=O)[C@H](CCCNC(=N)N)NC(=O)COCCOCCNC(=O)CC[C@H](NC(=O)CCCCCCCCCCCCCCCCCCC(=O)O)C(=O)O)C(=O)N[C@@H](CC(N)=O)C(=O)N[C@@H]([C@@H](C)O)C(=O)N[C@@H](C)C(=O)N[C@@H]([C@@H](C)O)C(=O)N1)[C@@H](C)O)C(=O)N[C@@H](CC(C)C)C(=O)N1CCC[C@H]1C(=O)N1CCC[C@H]1C(=O)N[C@H](C(=O)N[C@@H](CC(N)=O)C(=O)N[C@H](C(=O)NCC(=O)N[C@@H](CO)C(=O)N[C@@H](CC(N)=O)C(=O)N[C@H](C(=O)N[C@@H](Cc1ccc(O)cc1)C(N)=O)[C@@H](C)O)C(C)C)[C@@H](C)O` [Example 23, N-alpha-[2-(2-{2-[4-(S)-Carboxy-4-(19-carboxynonadecanoylamino)butyrylamino]ethoxy}ethoxy)acetyl]-Arg-[Arg17]-pramlintide] ({C20 diacid-γGlu-AEEA}-RKCNTATCATQRLANFLRHSSNNFGPILPPTNVGSNTY-NH2; disulfide 3-8), the EC50 in series [1] was 0.1 nM. The half-life in series [2] is 53 h.
Regarding `CC[C@H](C)[C@H](NC(=O)[C@@H]1CCCN1C(=O)CNC(=O)[C@H](Cc1ccccc1)NC(=O)[C@H](CC(N)=O)NC(=O)[C@H](CC(N)=O)NC(=O)[C@H](CO)NC(=O)[C@H](CO)NC(=O)[C@H](Cc1c[nH]cn1)NC(=O)[C@H](Cc1c[nH]cn1)NC(=O)[C@H](CC(C)C)NC(=O)[C@H](Cc1ccccc1)NC(=O)[C@H](CC(N)=O)NC(=O)[C@H](C)NC(=O)[C@H](CC(C)C)NC(=O)[C@H](CCCNC(=N)N)NC(=O)[C@H](CCC(N)=O)NC(=O)[C@@H](NC(=O)[C@H](C)NC(=O)[C@@H]1CSSC[C@H](NC(=O)[C@H](Cc2c[nH]cn2)NC(=O)CC[C@H](NC(=O)CCCCCCCCCCCCCCCCCCC(=O)O)C(=O)O)C(=O)N[C@@H](CC(N)=O)C(=O)N[C@@H]([C@@H](C)O)C(=O)N[C@@H](C)C(=O)N[C@@H]([C@@H](C)O)C(=O)N1)[C@@H](C)O)C(=O)N[C@@H](CC(C)C)C(=O)N1CCC[C@H]1C(=O)N1CCC[C@H]1C(=O)N[C@H](C(=O)N[C@@H](CC(N)=O)C(=O)N[C@H](C(=O)NCC(=O)N[C@@H](CO)C(=O)N[C@@H](CC(N)=O)C(=O)N[C@H](C(=O)N[C@@H](Cc1ccc(O)cc1)C(N)=O)[C@@H](C)O)C(C)C)[C@@H](C)O` [Example 29, N-alpha-[(S)-4-Carboxy-4-(19-carboxynonadecanoylamino)butyryl]-[His1,His17]-pramlintide] ({C20 diacid-γGlu}-HCNTATCATQRLANFLHHSSNNFGPILPPTNVGSNTY-NH2; disulfide 2-7), the EC50 in series [1] is 0.07 nM. The half-life in series [2] was 110 h.

One may read the half-life as how long it takes for the measured level to halve. Read a low half-life as fast loss.
